Values quoted from earlier work as cited in US6433221B1 (RPC Inc., priority 1998, dated 2002).
Like-named read-outs stand apart in the source and are kept apart here.

How the values were obtained:
[1] = water in cyclohexanone; for mol % CHxO: balance
[2] = cyclohexanone in water; for mol % H2O: balance

O [Water]
mol % H2O ([1]; 20 °C): 25.1% mol %
wt % H2O ([1]; 20 °C): 5.7% wt %
mol % CHxO ([1]; 20 °C): 74.9% mol %
wt % H2O ([1]; 20 °C, listed as water): 5.7 wt %
mol % H2O ([1]; 25 °C): 25.6% mol %
wt % H2O ([1]; 25 °C): 5.9% wt %
mol % CHxO ([1]; 25 °C): 74.4% mol %
mol % H2O ([1]; 30 °C): 26.1% mol %
wt % H2O ([1]; 30 °C): 6.0% wt %
mol % CHxO ([1]; 30 °C): 73.9% mol %
mol % H2O ([1]; 50 °C): 28.7% mol %
wt % H2O ([1]; 50 °C): 6.8% wt %
mol % CHxO ([1]; 50 °C): 71.3% mol %
mol % H2O ([1]; 70 °C): 32.6% mol %
wt % H2O ([1]; 70 °C): 8.1% wt %
mol % CHxO ([1]; 70 °C): 67.4% mol %
mol % H2O ([1]; 90 °C): 38.5% mol %
wt % H2O ([1]; 90 °C): 10.2% wt %
mol % CHxO ([1]; 90 °C): 61.5% mol %

O=C1CCCCC1 [Cyclohexanone]
mol % CHxO ([2]; 20 °C): 1.98% mol %
wt % CHxO ([2]; 20 °C): 10.00% wt %
mol % H2O ([2]; 20 °C): 98.02% mol %
mol % CHxO ([2]; 25 °C): 1.85% mol %
wt % CHxO ([2]; 25 °C): 9.39% wt %
mol % H2O ([2]; 25 °C): 98.15% mol %
mol % CHxO ([2]; 30 °C): 1.73% mol %
wt % CHxO ([2]; 30 °C): 8.83% wt %
mol % H2O ([2]; 30 °C): 98.27% mol %
mol % CHxO ([2]; 50 °C): 1.43% mol %
wt % CHxO ([2]; 50 °C): 7.39% wt %
mol % H2O ([2]; 50 °C): 98.57% mol %
mol % CHxO ([2]; 70 °C): 1.34% mol %
wt % CHxO ([2]; 70 °C): 6.95% wt %
mol % H2O ([2]; 70 °C): 98.66% mol %
mol % CHxO ([2]; 90 °C): 1.44% mol %
wt % CHxO ([2]; 90 °C): 7.44% wt %
mol % H2O ([2]; 90 °C): 98.56% mol %
